ChEMBL document CHEMBL4414548 (J Med Chem, 2019)
Active and inactive are the calls of the source. The rule behind the calls is not given here.

What was measured:
[1] = test system: Mus musculus; test: Antiinflammatory activity in po dosed B6 CB17 mouse model of CD40-induced colitis assessed as inhibition of body weight loss administered twice daily as nanosuspension; format: functional, organism-based; conditions: tested as the 2H-labelled form
[2] = test system: Mus musculus; test: Antiinflammatory activity in B6 CB17 mouse model of CD40-induced colitis assessed as reduction in colitis severity at 250 mg/kg, po BID administered as nanosuspension; format: functional, organism-based; conditions: tested as the 2H-labelled form
[3] = test system: Mus musculus; test: Inhibition of IL12/IL18-induced IFNgamma production in po dosed C57BL/6 mouse pretreated for 1 hr followed by IL12 stimulation and subsequent IL18 addition and measured after 3 hrs; format: functional, organism-based; conditions: tested as the 2H-labelled form
[4] = test system: Mus musculus; test: Antiinflammatory activity in B6 CB17 mouse model of CD40-induced colitis assessed as reduction in inflammation at 250 mg/kg, po BID administered as nanosuspension; format: functional, organism-based; conditions: tested as the 2H-labelled form
[5] = test system: Mus musculus; test: Antiinflammatory activity in B6 CB17 mouse model of CD40-induced colitis assessed as reduction in colitis damage at 250 mg/kg, po BID administered as nanosuspension; format: functional, organism-based; conditions: tested as the 2H-labelled form
[6] = molecular target: T1, Non-receptor tyrosine-protein kinase TYK2 (Homo sapiens, UniProt P29597); test: Inhibition of fluorescein-labeled kinase tracer binding to His-TVMV-fused TYK2 JH2 domain (575 to 869 residues) (unknown origin) measured after 90 mins by HTRF assay
[7] = molecular target: JAK2/TYK2 (Homo sapiens, UniProt O60674+P29597); test: Inhibition of TYK2/JAK2 in IL23-stimulated human Kit225 cells by steady-glo luciferase assay
[8] = molecular target: JAK1/TYK2 (Homo sapiens, UniProt P23458+P29597); test: Inhibition of TYK2/JAK1 in IFNalpha-stimulated human Kit225 cells by steady-glo luciferase assay
[9] = molecular target: T1, Non-receptor tyrosine-protein kinase TYK2; test: Inhibition of TYK2 JH2 domain in human whole blood assessed as inhibition of IFNalpha-induced STAT5 phosphorylation preincubated for 1 hr followed by IFNalpha stimulation and measured after 15 mins by fluorescence assay; format: tissue-based
[10] = molecular target: 3',5'-cyclic-AMP phosphodiesterase 4D (Homo sapiens, UniProt Q08499); test: Inhibition of [3H]cAMP binding to recombinant human His-Tb fused PDE4D2 (86 to 413 residues) expressed in Escherichia coli using [3H]cAMP as substrate preincubated for 10 mins followed by [3H]cAMP addition and measured after 1 hr by scintillation proximity assay
[11] = Permeability across apical to basolateral side in human Caco2 cells; format: ADME, cell-based; conditions: Caco-2, read-out: permeability
[12] = Efflux ratio of permeability in human Caco2; format: ADME, cell-based; conditions: Caco-2
[13] = Metabolic stability in human liver microsomes assessed as parent compound remaining after 10 mins; format: ADME, Microsome; conditions: read-out: Stability
[14] = Metabolic stability in rat liver microsomes assessed as parent compound remaining after 10 mins; format: ADME, Microsome; conditions: read-out: Stability
[15] = Metabolic stability in mouse liver microsomes assessed as parent compound remaining after 10 mins; format: ADME, Microsome; conditions: read-out: Stability
[16] = Cmax in mouse at 10 mg/kg, po; format: ADME, organism-based; design: dose 10 mg/kg, route oral; conditions: in vivo
[17] = AUClast in mouse at 10 mg/kg, po; format: ADME, organism-based; design: dose 10 mg/kg, route oral, time 0 - last; conditions: in vivo
[18] = molecular target: T1, Non-receptor tyrosine-protein kinase TYK2; test: Inhibition of TYK2 JH1 domain (unknown origin)
[19] = molecular target: Tyrosine-protein kinase JAK1 (Homo sapiens, UniProt P23458); test: Inhibition of JAK1 JH1 domain (unknown origin)
[20] = molecular target: Tyrosine-protein kinase JAK2 (Homo sapiens, UniProt O60674); test: Inhibition of JAK2 JH1 domain (unknown origin)
[21] = molecular target: JAK3/JAK1 (Homo sapiens, UniProt P23458+P52333); test: Inhibition of JAK1/JAK3 (unknown origin) in IL-2 stimulated cells by cell based assay
[22] = molecular target: JAK2/JAK1 (Homo sapiens, UniProt O60674+P23458); test: Inhibition of JAK1/JAK2 (unknown origin) in GM-CSF stimulated cells by cell based assay
[23] = Protein binding in human plasma assessed as unbound fraction; format: ADME, cell-free
[24] = molecular target: T1, Non-receptor tyrosine-protein kinase TYK2; test: Inhibition of TYK2 JH2 (unknown origin) by Scintillation proximity assay
[25] = molecular target: T1, Non-receptor tyrosine-protein kinase TYK2; test: Inhibition of TYK2 JH2 (unknown origin) by morrison titration assay; conditions: read-out: Ki(app)
[26] = molecular target: T2, Inhibitor of nuclear factor kappa-B kinase subunit beta (Homo sapiens) (UniProt O14920); test: Inhibition of IKKbeta (unknown origin)
T2 sequence (whole entry): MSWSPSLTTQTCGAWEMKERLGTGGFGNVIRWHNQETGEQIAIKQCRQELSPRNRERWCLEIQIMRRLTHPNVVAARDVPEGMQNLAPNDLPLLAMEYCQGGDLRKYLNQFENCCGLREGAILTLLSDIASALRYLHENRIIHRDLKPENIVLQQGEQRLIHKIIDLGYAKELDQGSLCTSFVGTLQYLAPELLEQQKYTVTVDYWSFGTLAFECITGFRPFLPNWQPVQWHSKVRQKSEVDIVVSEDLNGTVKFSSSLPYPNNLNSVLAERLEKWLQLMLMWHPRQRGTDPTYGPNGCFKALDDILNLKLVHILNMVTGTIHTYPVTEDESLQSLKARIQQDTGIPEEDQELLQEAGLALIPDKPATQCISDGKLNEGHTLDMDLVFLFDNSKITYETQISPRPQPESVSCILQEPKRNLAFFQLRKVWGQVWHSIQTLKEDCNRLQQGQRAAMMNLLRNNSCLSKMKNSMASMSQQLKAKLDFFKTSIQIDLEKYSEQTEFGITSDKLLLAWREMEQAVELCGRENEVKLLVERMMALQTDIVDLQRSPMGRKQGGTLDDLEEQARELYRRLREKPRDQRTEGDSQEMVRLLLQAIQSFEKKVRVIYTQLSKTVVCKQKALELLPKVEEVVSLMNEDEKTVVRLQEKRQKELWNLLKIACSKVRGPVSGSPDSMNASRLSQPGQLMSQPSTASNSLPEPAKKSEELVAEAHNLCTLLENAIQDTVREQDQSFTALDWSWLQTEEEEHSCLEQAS

[27] = Metabolic stability in pooled human liver microsomes at 0.5 uM after 10 mins by UV based analysis; format: ADME, Microsome; conditions: read-out: Stability
[28] = Metabolic stability in pooled mouse liver microsomes at 0.5 uM after 10 mins by UV based analysis; format: ADME, Microsome; conditions: read-out: Stability
[29] = molecular target: Non-receptor tyrosine-protein kinase TYK2 (Mus musculus, UniProt Q9R117); test: Inhibition of TYK2 JH2 domain in mouse whole blood assessed as inhibition of IFNalpha-induced STAT1 phosphorylation preincubated for 1 hr followed by IFNalpha stimulation and measured after 15 mins by fluorescence assay; format: tissue-based
[30] = Half life in human liver microsomes; format: ADME, Microsome
[31] = Half life in rat liver microsomes; format: ADME, Microsome
[32] = Half life in mouse liver microsomes; format: ADME, Microsome
[33] = Half life in cynomolgus monkey liver microsomes; format: ADME, Macaca fascicularis, Microsome
[34] = Half life in dog liver microsomes; format: ADME, Canis lupus familiaris, Microsome
[35] = Partition coefficient, log P of compound by HPLC analysis; format: physicochemical; conditions: octanol/water
[36] = Cmax in mouse at 10 mg/kg, po after 7 hrs; format: ADME, organism-based; design: dose 10 mg/kg, route oral; conditions: in vivo
[37] = AUClast in mouse at 10 mg/kg, po after 7 hrs; format: ADME, organism-based; design: time < 7 hr, dose 10 mg/kg, route oral; conditions: in vivo
[38] = molecular target: T3, Voltage-gated inwardly rectifying potassium channel KCNH2 (Homo sapiens, UniProt Q12809); test: Inhibition of human ERG by patch clamp assay
[39] = molecular target: Mast/stem cell growth factor receptor Kit (Homo sapiens, UniProt P10721); test: Inhibition of cKIT (unknown origin)
[40] = molecular target: T3, Voltage-gated inwardly rectifying potassium channel KCNH2; test: Inhibition of human ERG by fluorescence polarization assay

Tyrosine-protein kinase JAK1, sequence (P23458 whole entry, the tested form may be a part): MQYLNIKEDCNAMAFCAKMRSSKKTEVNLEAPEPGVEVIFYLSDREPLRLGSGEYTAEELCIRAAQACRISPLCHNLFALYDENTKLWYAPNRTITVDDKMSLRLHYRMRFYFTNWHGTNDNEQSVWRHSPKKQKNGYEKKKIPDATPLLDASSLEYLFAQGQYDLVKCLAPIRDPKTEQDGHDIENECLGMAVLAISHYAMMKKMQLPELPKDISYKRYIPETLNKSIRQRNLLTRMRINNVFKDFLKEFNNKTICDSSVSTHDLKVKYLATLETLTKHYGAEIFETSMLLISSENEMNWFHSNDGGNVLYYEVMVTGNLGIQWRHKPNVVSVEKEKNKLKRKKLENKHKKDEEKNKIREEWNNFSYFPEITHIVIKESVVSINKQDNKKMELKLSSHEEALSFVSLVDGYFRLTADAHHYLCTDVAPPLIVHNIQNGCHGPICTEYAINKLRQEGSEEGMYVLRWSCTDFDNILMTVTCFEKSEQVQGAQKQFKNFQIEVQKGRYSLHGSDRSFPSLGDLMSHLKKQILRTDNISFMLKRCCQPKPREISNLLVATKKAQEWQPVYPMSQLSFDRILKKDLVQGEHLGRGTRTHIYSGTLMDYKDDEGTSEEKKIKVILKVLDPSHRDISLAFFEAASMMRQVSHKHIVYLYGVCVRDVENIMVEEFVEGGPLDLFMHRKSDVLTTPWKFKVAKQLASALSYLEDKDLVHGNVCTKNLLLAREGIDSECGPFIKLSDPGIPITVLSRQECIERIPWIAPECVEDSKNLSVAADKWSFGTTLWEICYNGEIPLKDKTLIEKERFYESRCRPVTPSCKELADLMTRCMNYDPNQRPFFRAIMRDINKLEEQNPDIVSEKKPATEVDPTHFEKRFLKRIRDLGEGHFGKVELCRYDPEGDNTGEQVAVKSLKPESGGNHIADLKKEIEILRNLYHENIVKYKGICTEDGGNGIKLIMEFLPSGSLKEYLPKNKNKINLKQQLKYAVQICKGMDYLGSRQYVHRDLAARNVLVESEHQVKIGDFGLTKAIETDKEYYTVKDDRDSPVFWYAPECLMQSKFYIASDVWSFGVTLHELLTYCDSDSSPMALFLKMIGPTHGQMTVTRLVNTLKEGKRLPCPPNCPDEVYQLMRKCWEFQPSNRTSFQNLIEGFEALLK
JAK1/TYK2, sequence (P23458 whole entry, the tested form may be a part): as above
JAK1/TYK2, sequence (P29597 whole entry, the tested form may be a part): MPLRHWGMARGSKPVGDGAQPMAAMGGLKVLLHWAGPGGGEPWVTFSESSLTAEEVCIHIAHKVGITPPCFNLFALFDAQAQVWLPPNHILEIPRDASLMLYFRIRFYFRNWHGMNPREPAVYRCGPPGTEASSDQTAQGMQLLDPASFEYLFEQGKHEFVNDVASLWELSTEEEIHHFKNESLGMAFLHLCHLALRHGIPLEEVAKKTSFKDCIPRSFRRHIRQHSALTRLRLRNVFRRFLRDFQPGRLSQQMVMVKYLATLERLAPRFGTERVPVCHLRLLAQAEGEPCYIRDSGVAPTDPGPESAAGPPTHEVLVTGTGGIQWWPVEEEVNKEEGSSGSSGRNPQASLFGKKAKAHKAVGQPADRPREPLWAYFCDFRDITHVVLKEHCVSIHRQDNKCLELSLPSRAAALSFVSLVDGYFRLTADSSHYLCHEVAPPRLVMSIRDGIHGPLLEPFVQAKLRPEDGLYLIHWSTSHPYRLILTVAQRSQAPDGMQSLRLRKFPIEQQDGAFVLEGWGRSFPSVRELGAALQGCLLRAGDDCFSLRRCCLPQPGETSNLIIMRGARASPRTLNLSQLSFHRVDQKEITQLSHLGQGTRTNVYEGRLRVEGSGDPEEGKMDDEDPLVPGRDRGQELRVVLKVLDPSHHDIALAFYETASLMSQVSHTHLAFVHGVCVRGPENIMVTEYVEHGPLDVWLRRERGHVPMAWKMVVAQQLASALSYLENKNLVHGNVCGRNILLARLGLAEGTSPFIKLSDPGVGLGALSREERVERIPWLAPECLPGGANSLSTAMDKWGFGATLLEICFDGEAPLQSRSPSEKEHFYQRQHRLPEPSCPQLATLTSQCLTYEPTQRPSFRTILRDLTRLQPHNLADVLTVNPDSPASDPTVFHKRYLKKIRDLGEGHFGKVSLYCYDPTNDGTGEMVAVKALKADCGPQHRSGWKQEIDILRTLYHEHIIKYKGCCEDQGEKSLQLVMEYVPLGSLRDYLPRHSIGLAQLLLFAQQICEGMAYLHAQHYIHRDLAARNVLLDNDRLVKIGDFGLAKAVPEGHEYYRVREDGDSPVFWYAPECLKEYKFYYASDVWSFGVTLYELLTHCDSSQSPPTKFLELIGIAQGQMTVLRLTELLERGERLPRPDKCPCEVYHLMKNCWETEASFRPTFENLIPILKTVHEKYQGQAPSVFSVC
T1 sequence (P29597 whole entry, the tested form may be a part): as above
Tyrosine-protein kinase JAK2, sequence (O60674 whole entry, the tested form may be a part): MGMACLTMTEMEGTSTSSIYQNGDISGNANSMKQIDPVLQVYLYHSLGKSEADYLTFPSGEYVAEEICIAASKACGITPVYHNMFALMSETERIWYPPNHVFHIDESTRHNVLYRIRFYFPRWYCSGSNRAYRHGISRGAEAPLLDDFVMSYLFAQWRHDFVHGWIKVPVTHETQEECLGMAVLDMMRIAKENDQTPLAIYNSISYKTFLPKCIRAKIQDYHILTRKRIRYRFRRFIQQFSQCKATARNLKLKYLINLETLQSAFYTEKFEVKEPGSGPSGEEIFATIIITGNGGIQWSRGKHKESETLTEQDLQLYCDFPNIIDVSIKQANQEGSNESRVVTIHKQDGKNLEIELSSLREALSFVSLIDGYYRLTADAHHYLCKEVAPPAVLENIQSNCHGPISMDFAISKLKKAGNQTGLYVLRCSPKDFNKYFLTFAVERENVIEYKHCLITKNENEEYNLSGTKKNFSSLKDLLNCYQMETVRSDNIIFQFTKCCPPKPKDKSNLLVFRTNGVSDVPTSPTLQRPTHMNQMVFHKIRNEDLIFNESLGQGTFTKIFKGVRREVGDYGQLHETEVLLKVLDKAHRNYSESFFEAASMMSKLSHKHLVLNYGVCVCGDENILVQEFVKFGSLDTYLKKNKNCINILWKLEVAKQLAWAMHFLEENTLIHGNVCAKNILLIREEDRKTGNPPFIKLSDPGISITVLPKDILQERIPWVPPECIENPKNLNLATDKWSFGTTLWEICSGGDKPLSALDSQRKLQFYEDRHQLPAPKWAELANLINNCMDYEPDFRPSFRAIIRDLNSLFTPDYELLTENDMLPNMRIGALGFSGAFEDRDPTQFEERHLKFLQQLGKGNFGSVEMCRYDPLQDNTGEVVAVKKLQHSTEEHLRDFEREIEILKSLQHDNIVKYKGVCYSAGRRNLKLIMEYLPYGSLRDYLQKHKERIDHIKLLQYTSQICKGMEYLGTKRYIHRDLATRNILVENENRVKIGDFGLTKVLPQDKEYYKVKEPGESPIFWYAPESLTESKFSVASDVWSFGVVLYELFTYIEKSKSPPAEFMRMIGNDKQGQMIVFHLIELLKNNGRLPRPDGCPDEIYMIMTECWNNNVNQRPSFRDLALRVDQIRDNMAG
JAK2/TYK2, sequence (O60674 whole entry): as the sequence (O60674 whole entry, the tested form may be a part) above
JAK2/TYK2, sequence (P29597 whole entry): as the sequence (P29597 whole entry, the tested form may be a part) above
T3 sequence (Q12809 whole entry): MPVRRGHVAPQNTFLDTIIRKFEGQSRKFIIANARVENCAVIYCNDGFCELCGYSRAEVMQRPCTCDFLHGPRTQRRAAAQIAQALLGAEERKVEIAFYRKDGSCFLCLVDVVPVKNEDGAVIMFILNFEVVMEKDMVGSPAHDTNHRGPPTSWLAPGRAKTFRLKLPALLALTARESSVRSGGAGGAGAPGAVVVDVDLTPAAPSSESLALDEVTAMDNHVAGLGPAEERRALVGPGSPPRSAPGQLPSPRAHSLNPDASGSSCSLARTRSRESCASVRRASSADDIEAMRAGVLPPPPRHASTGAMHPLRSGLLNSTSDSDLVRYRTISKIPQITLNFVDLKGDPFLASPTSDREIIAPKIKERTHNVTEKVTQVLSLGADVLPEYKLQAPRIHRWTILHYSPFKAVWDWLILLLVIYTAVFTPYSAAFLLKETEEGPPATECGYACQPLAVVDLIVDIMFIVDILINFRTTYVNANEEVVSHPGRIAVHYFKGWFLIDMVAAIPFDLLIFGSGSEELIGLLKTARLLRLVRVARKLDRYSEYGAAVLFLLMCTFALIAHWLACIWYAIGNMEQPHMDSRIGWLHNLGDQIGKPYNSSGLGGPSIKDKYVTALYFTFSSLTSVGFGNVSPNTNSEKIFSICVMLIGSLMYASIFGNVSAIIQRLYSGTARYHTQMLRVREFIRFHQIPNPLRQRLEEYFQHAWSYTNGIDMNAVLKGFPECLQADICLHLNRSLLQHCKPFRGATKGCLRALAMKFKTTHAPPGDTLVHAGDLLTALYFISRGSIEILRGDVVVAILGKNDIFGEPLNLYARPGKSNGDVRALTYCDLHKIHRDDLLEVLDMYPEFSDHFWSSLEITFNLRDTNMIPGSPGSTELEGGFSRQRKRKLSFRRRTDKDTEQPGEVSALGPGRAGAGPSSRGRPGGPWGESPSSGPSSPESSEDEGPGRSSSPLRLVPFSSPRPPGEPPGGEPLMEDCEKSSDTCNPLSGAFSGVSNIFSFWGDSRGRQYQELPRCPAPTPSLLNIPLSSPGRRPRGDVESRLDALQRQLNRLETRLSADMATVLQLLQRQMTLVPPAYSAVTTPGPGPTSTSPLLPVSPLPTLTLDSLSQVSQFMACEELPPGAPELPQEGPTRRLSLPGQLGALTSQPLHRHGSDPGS
JAK2/JAK1, sequence (P23458 whole entry): as the sequence (P23458 whole entry, the tested form may be a part) above
JAK2/JAK1, sequence (O60674 whole entry): as the sequence (O60674 whole entry, the tested form may be a part) above

Row | SMILES | IC50 [6] | IC50 [7] | IC50 [8] | IC50 [9] | IC50 [10] | Papp A→B [11] | efflux ratio [12] | remaining at 10 min [13] | remaining at 10 min [14] | remaining at 10 min [15] | Cmax [16] | AUC(0-t) [17] | IC50 [18] | IC50 [19] | IC50 [20] | IC50 [21] | IC50 [22] | Ki [25] | IC50 [29] | half-life [30] | also measured
1 | CNC(=O)c1nnc(Nc2ccccn2)cc1Nc1ccccc1S(C)(=O)=O |  |  |  |  |  |  |  |  |  |  |  |  |  |  |  |  |  |  |  |  | inhibition [1]: Dose-dependent effect; Activity [2]: Active; inhibition [3]: Dose-dependent effect; Activity [4]: Active; Activity [5]: Active
2 | CNC(=O)c1cnc(Nc2ccc(F)cn2)cc1Nc1ccc(F)c(F)c1OC | 1.5 nM | 380 nM | 220 nM | 2400 nM | 7400 nM | 4.1 ×10⁻⁶ cm/s | 0.5 | 57% | 73% | 58% | 1600 nM | 4 µM·h |  |  |  |  |  |  |  |  | 
3 | CNC(=O)c1cnc(Nc2ccc(F)cn2)cc1Nc1ccccc1C(N)=O | 1.3 nM | 660 nM | 320 nM | 530 nM | 10400 nM | < 1.5 ×10⁻⁶ cm/s | > 35 | 94% | 83% | 82% | 36 nM | 0.15 µM·h | > 2000 nM | > 2000 nM | > 2000 nM | > 12500 nM | > 12500 nM |  |  |  | fraction unbound [23]: 0.263
4 | NC(=O)c1ccccc1Nc1cc(Nc2ccc(F)cn2)ncc1C(N)=O | 0.46 nM | 89 nM | 37 nM |  |  |  |  |  |  |  |  |  | 15 nM | 26 nM | 24 nM | 400 nM | 210 nM | 0.06 nM |  |  | EC50 [24]: 6.6 nM; inhibition [26]: inactive; remaining at 10 min, 0.5 µM [27]: > 80%; remaining at 10 min, 0.5 µM [28]: > 80%
5 | [2H]C([2H])([2H])NC(=O)c1nnc(NC(=O)C2CC2)cc1Nc1ccccc1S(C)(=O)=O | 1.3 nM |  | 1.3 nM | 230 nM |  | 6.9 ×10⁻⁶ cm/s | 7.7 |  |  |  |  |  | 50000 nM | > 2000 nM | > 50000 nM |  |  | 0.8 nM | 340 nM | 1.83 h | half-life [31]: 1.35 h; half-life [32]: 0.8 h; half-life [33]: 1.12 h; half-life [34]: 1.25 h; logP [35]: 2.03; Cmax [36]: 3420 nM; AUC(0-t) at 7 h [37]: 6.61 µM·h; IC50 [38]: > 30000 nM
6 | CNC(=O)c1cnc(NC(=O)C2CC2)cc1Nc1ccccc1S(C)(=O)=O | 1.6 nM | 430 nM | 390 nM | 310 nM |  | 1.7 ×10⁻⁶ cm/s | 29 |  |  |  |  |  |  |  |  |  |  |  | 830 nM | > 2 h | IC50 [39]: > 2000 nM; IC50 [40]: > 80000 nM; half-life [31]: 1.92 h; half-life [32]: 0.167 h; half-life [33]: 1.8 h; half-life [34]: 0.567 h; logP [35]: 1.89; Cmax [36]: 190 nM; AUC(0-t) at 7 h [37]: 0.56 µM·h
